From ChEMBL document CHEMBL1154822, “Synthesis and antiproliferative activity of 7-azaindirubin-3'-oxime, a 7-aza isostere of the natural indirubin pharmacophore” (J Nat Prod, 2009)

How the values were obtained:
Assay type in all cases: functional
HCC 2998 [1] = experiment: Cytotoxicity against human HCC2998 cells assessed as cell growth at 10 uM after 48 hrs by MTT assay; settings: HCC 2998, 48 h, read-out: Activity
CCRF-CEM = experiment: Cytotoxicity against human CCRF-CEM cells assessed as cell growth at 1 uM after 1 to 11 days by MTT assay; settings: read-out: Activity
MCF7 = experiment: Cytotoxicity against human MCF7 cells assessed as cell growth at 0.1 uM after 1 to 11 days by MTT assay; settings: read-out: Activity
M14 [2] = experiment: Cytotoxicity against human M14 cells assessed as cell growth at 10 uM after 1 to 11 days by MTT assay; settings: read-out: Activity
HOP-62 = experiment: Cytotoxicity against human HOP62 cells assessed as cell growth at 1 mM after 1 to 11 days by MTT assay; settings: read-out: Activity
OVCAR-5 [3] = experiment: Cytotoxicity against human OVCAR5 cells after 1 to 11 days by MTT assay
HCT-15 = experiment: Cytotoxicity against human HCT15 cells assessed as cell growth at 1 uM after 1 to 11 days by MTT assay; settings: read-out: Activity
MDA-MB-231 [4] = experiment: Cytotoxicity against human MDA-MB-231 cells after 1 to 11 days by MTT assay
SK-MEL-5 = experiment: Cytotoxicity against human SK-MEL-5 cells assessed as cell growth at 0.1 uM after 1 to 11 days by MTT assay; settings: read-out: Activity
BT-549 [5] = experiment: Cytotoxicity against human BT549 cells assessed as cell growth at 1 uM after 1 to 11 days by MTT assay; settings: read-out: Activity
A498 [6] = experiment: Cytotoxicity against human A498 cells assessed as cell growth at 1 mM after 1 to 11 days by MTT assay; settings: read-out: Activity
SNB-19 [7] = experiment: Cytotoxicity against human SNB19 cells assessed as cell growth at 1 mM after 1 to 11 days by MTT assay; settings: read-out: Activity
RPMI-8226 = experiment: Cytotoxicity against human RPMI8226 cells assessed as cell growth at 1 uM after 1 to 11 days by MTT assay; settings: read-out: Activity
OVCAR-4 = experiment: Cytotoxicity against human OVCAR4 cells assessed as cell growth at 1 mM after 1 to 11 days by MTT assay; settings: read-out: Activity
PC-3 = experiment: Cytotoxicity against human PC3 cells assessed as cell growth at 10 uM after 1 to 11 days by MTT assay; settings: read-out: Activity
M14 [8] = experiment: Cytotoxicity against human M14 cells after 1 to 11 days by MTT assay
786-0 [9] = experiment: Cytotoxicity against human 786-0 cells assessed as cell growth at 0.1 uM after 1 to 11 days by MTT assay; settings: read-out: Activity
U-251 [10] = experiment: Cytotoxicity against human U251 cells assessed as cell growth at 1 mM after 1 to 11 days by MTT assay; settings: read-out: Activity
MDA-MB-468 = experiment: Cytotoxicity against human MDA-MB-468 cells assessed as cell growth at 100 uM after 1 to 11 days by MTT assay; settings: read-out: Activity
OVCAR-8 = experiment: Cytotoxicity against human OVCAR8 cells after 1 to 11 days by MTT assay
LOX IMVI = experiment: Cytotoxicity against human LOXIMVI cells assessed as cell growth at 1 uM after 1 to 11 days by MTT assay; settings: read-out: Activity
T47D [11] = experiment: Cytotoxicity against human T47D cells assessed as cell growth at 10 uM after 1 to 11 days by MTT assay; settings: read-out: Activity
OVCAR-5 [12] = experiment: Cytotoxicity against human OVCAR5 cells assessed as cell growth at 100 uM after 1 to 11 days by MTT assay; settings: read-out: Activity
ACHN = experiment: Cytotoxicity against human ACHN cells assessed as cell growth at 10 uM after 1 to 11 days by MTT assay; settings: read-out: Activity
SR [13] = experiment: Cytotoxicity against human SR cells assessed as cell growth at 100 uM after 1 to 11 days by MTT assay; settings: read-out: Activity
SW-620 = experiment: Cytotoxicity against human SW620 cells assessed as cell growth at 1 mM after 1 to 11 days by MTT assay; settings: read-out: Activity
SNB-75 = experiment: Cytotoxicity against human SNB75 cells assessed as cell growth at 0.1 uM after 1 to 11 days by MTT assay; settings: read-out: Activity
786-0 [14] = experiment: Cytotoxicity against human 786-0 cells assessed as cell growth at 1 uM after 1 to 11 days by MTT assay; settings: read-out: Activity
SR [15] = experiment: Cytotoxicity against human SR cells assessed as cell growth at 0.1 uM after 1 to 11 days by MTT assay; settings: read-out: Activity
SF-268 [16] = experiment: Cytotoxicity against human SF268 cells after 1 to 11 days by MTT assay
U-251 [17] = experiment: Cytotoxicity against human U251 cells assessed as cell growth at 1 uM after 1 to 11 days by MTT assay; settings: read-out: Activity
MDA-MB-231 [18] = experiment: Cytotoxicity against human MDA-MB-231 cells assessed as cell growth at 0.1 uM after 1 to 11 days by MTT assay; settings: read-out: Activity
U-251 [19] = experiment: Cytotoxicity against human U251 cells after 1 to 11 days by MTT assay
OVCAR-3 = experiment: Cytotoxicity against human OVCAR-3 cells assessed as cell growth at 100 uM after 1 to 11 days by MTT assay; settings: read-out: Activity
HCC 2998 [20] = experiment: Cytotoxicity against human HCC2998 cells after 1 to 11 days by MTT assay
A498 [21] = experiment: Cytotoxicity against human A498 cells assessed as cell growth at 10 uM after 1 to 11 days by MTT assay; settings: read-out: Activity
NCI-H322M = experiment: Cytotoxicity against human NCI-H322M cells after 1 to 11 days by MTT assay
BT-549 [22] = experiment: Cytotoxicity against human BT549 cells assessed as cell growth at 10 uM after 1 to 11 days by MTT assay; settings: read-out: Activity
OVCAR-5 [23] = experiment: Cytotoxicity against human OVCAR5 cells assessed as cell growth at 1 mM after 1 to 11 days by MTT assay; settings: read-out: Activity
SF-268 [24] = experiment: Cytotoxicity against human SF268 cells assessed as cell growth at 1 uM after 1 to 11 days by MTT assay; settings: read-out: Activity
UACC-257 = experiment: Cytotoxicity against human UACC257 cells assessed as cell growth at 0.1 uM after 1 to 11 days by MTT assay; settings: read-out: Activity
SNB-19 [25] = experiment: Cytotoxicity against human SNB19 cells assessed as cell growth at 0.1 uM after 1 to 11 days by MTT assay; settings: read-out: Activity
HCT-116 = experiment: Cytotoxicity against human HCT116 cells assessed as cell growth at 10 uM after 1 to 11 days by MTT assay; settings: read-out: Activity
T47D [26] = experiment: Cytotoxicity against human T47D cells assessed as cell growth at 100 uM after 1 to 11 days by MTT assay; settings: read-out: Activity
[27] = read-out: LC50 (the source's name)

O=C1Nc2ncccc2/C1=C1/Nc2ccccc2C1=O
growth at 10 µM (HCC 2998 [1]): 25.3%

O=C1Nc2ncccc2/C1=C1/Nc2ccccc2/C1=N\O
growth at 1 µM (CCRF-CEM): 76%
growth at 0.1 µM (MCF7): 98%
growth at 10 µM (M14 [2]): 86%
growth at 1000 µM (HOP-62): 74%
GI50 (OVCAR-5 [3]): 93.9 µM
TGI (OVCAR-5 [3]): > 100 µM
CC50 (OVCAR-5 [3]; [27]): > 100 µM
growth at 1 µM (HCT-15): 96%
GI50 (MDA-MB-231 [4]): 5.28 µM
TGI (MDA-MB-231 [4]): > 100 µM
CC50 (MDA-MB-231 [4]; [27]): > 100 µM
growth at 0.1 µM (SK-MEL-5): 104%
growth at 1 µM (BT-549 [5]): 70%
growth at 1000 µM (A498 [6]): 43%
growth at 1000 µM (SNB-19 [7]): 83%
growth at 1 µM (RPMI-8226): 80%
growth at 1000 µM (OVCAR-4): 39%
growth at 10 µM (PC-3): 82%
GI50 (M14 [8]): 7.95 µM
TGI (M14 [8]): > 100 µM
CC50 (M14 [8]; [27]): > 100 µM
growth at 0.1 µM (786-0 [9]): 119%
growth at 1000 µM (U-251 [10]): 68%
growth at 100 µM (MDA-MB-468): 18%
GI50 (OVCAR-8): > 100 µM
TGI (OVCAR-8): > 100 µM
CC50 (OVCAR-8; [27]): > 100 µM
growth at 1 µM (LOX IMVI): 97%
growth at 10 µM (T47D [11]): 65%
growth at 100 µM (OVCAR-5 [12]): 88%
growth at 10 µM (ACHN): 72%
growth at 100 µM (SR [13]): 29%
growth at 1000 µM (SW-620): 39%
growth at 0.1 µM (SNB-75): 84%
growth at 1 µM (786-0 [14]): 115%
growth at 0.1 µM (SR [15]): 109%
GI50 (SF-268 [16]): > 100 µM
TGI (SF-268 [16]): > 100 µM
CC50 (SF-268 [16]; [27]): > 100 µM
growth at 1 µM (U-251 [17]): 97%
growth at 0.1 µM (MDA-MB-231 [18]): 99%
GI50 (U-251 [19]): > 100 µM
TGI (U-251 [19]): > 100 µM
CC50 (U-251 [19]; [27]): > 100 µM
growth at 100 µM (OVCAR-3): 51%
GI50 (HCC 2998 [20]): 5.96 µM
TGI (HCC 2998 [20]): > 100 µM
CC50 (HCC 2998 [20]; [27]): > 100 µM
growth at 10 µM (A498 [21]): 63%
GI50 (NCI-H322M): 1.35 µM
TGI (NCI-H322M): > 100 µM
CC50 (NCI-H322M; [27]): > 100 µM
growth at 10 µM (BT-549 [22]): 69%
growth at 1000 µM (OVCAR-5 [23]): 49%
growth at 1 µM (SF-268 [24]): 99%
growth at 0.1 µM (UACC-257): 98%
growth at 0.1 µM (SNB-19 [25]): 94%
growth at 10 µM (HCT-116): 108%
growth at 100 µM (T47D [26]): 16%
